ChEMBL document CHEMBL4145553, “Design, synthesis, and biological evaluation of novel amide and hydrazide based thioether analogs targeting Histone deacteylase (HDAC) enzymes” (Eur J Med Chem, 2018)
Calls of active or inactive are those of the source. No cut-off for these calls is given here.

Experiments:
SR [1] = experiment: Growth inhibition of human SR cells assessed as cell growth at 10^-8 M incubated for 48 hrs by sulforhodamine B assay relative to control; format: functional; conditions: read-out: Activity
COLO 205 = experiment: Growth inhibition of human COLO205 cells assessed as cell growth at 10^-8 M incubated for 48 hrs by sulforhodamine B assay relative to control; format: functional; conditions: COLO 205, 48 h, read-out: Activity
HCC 2998 = experiment: Growth inhibition of human HCC2998 cells assessed as cell growth at 10^-8 M incubated for 48 hrs by sulforhodamine B assay relative to control; format: functional; conditions: HCC 2998, 48 h, read-out: Activity
SNB-19 = experiment: Growth inhibition of human SNB19 cells assessed as cell growth at 10^-8 M incubated for 48 hrs by sulforhodamine B assay relative to control; format: functional; conditions: SNB-19, 48 h, read-out: Activity
IGROV-1 = experiment: Growth inhibition of human IGROV1 cells assessed as cell growth at 10^-8 M incubated for 48 hrs by sulforhodamine B assay relative to control; format: functional; conditions: IGROV-1, 48 h, read-out: Activity
NCI-H23 = experiment: Growth inhibition of human NCI-H23 cells assessed as cell growth at 10^-7 M incubated for 48 hrs by sulforhodamine B assay relative to control; format: functional; conditions: NCI-H23, 48 h, read-out: Activity
NCI-H460 = experiment: Growth inhibition of human NCI-H460 cells assessed as cell growth at 10^-7 M incubated for 48 hrs by sulforhodamine B assay relative to control; format: functional; conditions: NCI-H460, 48 h, read-out: Activity
SF-268 = experiment: Growth inhibition of human SF268 cells assessed as cell growth at 10^-7 M incubated for 48 hrs by sulforhodamine B assay relative to control; format: functional; conditions: SF-268, 48 h, read-out: Activity
OVCAR-8 [2] = experiment: Growth inhibition of human OVCAR8 cells assessed as cell growth at 10^-7 M incubated for 48 hrs by sulforhodamine B assay relative to control; format: functional; conditions: OVCAR-8, 48 h, read-out: Activity
EKVX = experiment: Growth inhibition of human EKVX cells assessed as cell growth at 10^-6 M incubated for 48 hrs by sulforhodamine B assay relative to control; format: functional; conditions: read-out: Activity
NCI-H322M = experiment: Growth inhibition of human NCI-H322M cells assessed as cell growth at 10^-6 M incubated for 48 hrs by sulforhodamine B assay relative to control; format: functional; conditions: read-out: Activity
KM12 [3] = experiment: Growth inhibition of human KM12 cells assessed as cell growth at 10^-6 M incubated for 48 hrs by sulforhodamine B assay relative to control; format: functional; conditions: KM12, 48 h, read-out: Activity
DU-145 = experiment: Growth inhibition of human DU145 cells assessed as cell growth at 10^-6 M incubated for 48 hrs by sulforhodamine B assay relative to control; format: functional; conditions: DU-145, 48 h, read-out: Activity
HL-60(TB) [4] = experiment: Growth inhibition of human HL-60(TB) cells assessed as cell growth at 10^-5 M incubated for 48 hrs by sulforhodamine B assay relative to control; format: functional; conditions: HL-60, 48 h, read-out: Activity
SNB-75 = experiment: Growth inhibition of human SNB75 cells assessed as cell growth at 10^-5 M incubated for 48 hrs by sulforhodamine B assay relative to control; format: functional; conditions: SNB-75, 48 h, read-out: Activity
HL-60(TB) [5] = experiment: Growth inhibition of human HL-60(TB) cells assessed as cell growth at 10^-4 M incubated for 48 hrs by sulforhodamine B assay relative to control; format: functional; conditions: HL-60, 48 h, read-out: Activity
SR [6] = experiment: Growth inhibition of human SR cells assessed as cell growth at 10^-4 M incubated for 48 hrs by sulforhodamine B assay relative to control; format: functional; conditions: read-out: Activity
HOP-62 = experiment: Growth inhibition of human HOP62 cells assessed as cell growth at 10^-4 M incubated for 48 hrs by sulforhodamine B assay relative to control; format: functional; conditions: HOP-62, 48 h, read-out: Activity
U-251 = experiment: Growth inhibition of human U251 cells assessed as cell growth at 10^-4 M incubated for 48 hrs by sulforhodamine B assay relative to control; format: functional; conditions: U-251, 48 h, read-out: Activity
OVCAR-3 = experiment: Growth inhibition of human OVCAR3 cells assessed as cell growth at 10^-4 M incubated for 48 hrs by sulforhodamine B assay relative to control; format: functional; conditions: OVCAR-3, 48 h, read-out: Activity
OVCAR-8 [7] = experiment: Growth inhibition of human OVCAR8 cells assessed as cell growth at 10^-4 M incubated for 48 hrs by sulforhodamine B assay relative to control; format: functional; conditions: OVCAR-8, 48 h, read-out: Activity
CAKI-1 = experiment: Growth inhibition of human Caki1 cells assessed as cell growth at 10^-4 M incubated for 48 hrs by sulforhodamine B assay relative to control; format: functional; conditions: CAKI-1, 48 h, read-out: Activity
KM12 [8] = experiment: Growth inhibition of human KM12 cells incubated for 48 hrs by sulforhodamine B assay; format: functional; conditions: KM12, 48 h
MDA-MB-435 [9] = experiment: Growth inhibition of human MDA-MB-435 cells incubated for 48 hrs by sulforhodamine B assay; format: functional; conditions: MDA-MB-435, 48 h
OVCAR-4 = experiment: Growth inhibition of human OVCAR4 cells incubated for 48 hrs by sulforhodamine B assay; format: functional; conditions: OVCAR-4, 48 h
UO-31 = experiment: Growth inhibition of human UO31 cells incubated for 48 hrs by sulforhodamine B assay; format: functional; conditions: UO-31, 48 h
BT-549 = experiment: Growth inhibition of human BT549 cells incubated for 48 hrs by sulforhodamine B assay; format: functional; conditions: BT-549, 48 h
HL-60 [10] = experiment: Cell cycle arrest in human HL60 cells assessed as accumulation at G1-phase by propidium iodide staining based flow cytometry (reference value: 67.27%); format: functional
MDA-MB-435 [11] = experiment: Induction of apoptosis in human MDA-MB-435 cells assessed as increase in caspase-9 expression by qRT-PCR method; format: functional, cell-based
HL-60 [12] = experiment: Downregulation of HDAC1 mRNA expression in human HL60 cells by qRT-PCR method; format: functional, cell-based
HL-60 [13] = experiment: Downregulation of HDAC2 mRNA expression in human HL60 cells by qRT-PCR method relative to control; format: functional
[14] = read-out: LC50 (the source's name)
[15] = read-out: pLC50 (the source's name) (converted)

Q: Which results are given for `CCS/C(Nc1ccccc1)=C(\C#N)C(=O)Nc1ccc(OC)cc1`?
A: growth at 0.01 µM (SR [1]): 98%; growth at 0.01 µM (COLO 205): 111%; growth at 0.01 µM (HCC 2998): 102%; growth at 0.01 µM (SNB-19): 98%; growth at 0.01 µM (IGROV-1): 103%; growth at 0.1 µM (NCI-H23): 99%; growth at 0.1 µM (NCI-H460): 98%; growth at 0.1 µM (SF-268): 97%; growth at 0.1 µM (OVCAR-8 [2]): 99%; growth at 1 µM (EKVX): 84%; growth at 1 µM (NCI-H322M): 89%; growth at 1 µM (KM12 [3]): 68%; growth at 1 µM (DU-145): 93%; growth at 10 µM (HL-60(TB) [4]): 7%; growth at 10 µM (SNB-75): -13%; growth at 100 µM (HL-60(TB) [5]): 2%; growth at 100 µM (SR [6]): 16%; growth at 100 µM (HOP-62): 37%; growth at 100 µM (U-251): 6%; growth at 100 µM (OVCAR-3): -15%; growth at 100 µM (OVCAR-8 [7]): 10%; growth at 100 µM (CAKI-1): 18%; GI50 (KM12 [8]; read-out: GI50): 2.8 µM; CC50 (KM12 [8]; [14]): > 100 µM; TGI (KM12 [8]; read-out: TGI): > 100 µM; GI50 (KM12 [8]; read-out: pGI50 (converted)): 2.82 µM; CC50 (KM12 [8]; [15]): > 100 µM; TGI (KM12 [8]; read-out: pTGI): > 100 µM; GI50 (MDA-MB-435 [9]; read-out: GI50): 0.37 µM; CC50 (MDA-MB-435 [9]; [14]): > 100 µM; TGI (MDA-MB-435 [9]; read-out: TGI): 1.89 µM; GI50 (MDA-MB-435 [9]; read-out: pGI50 (converted)): 0.372 µM; CC50 (MDA-MB-435 [9]; [15]): > 100 µM; TGI (MDA-MB-435 [9]; read-out: pTGI (converted)): 1.91 µM; GI50 (OVCAR-4; read-out: GI50): 7.61 µM; CC50 (OVCAR-4; [14]): > 100 µM; TGI (OVCAR-4; read-out: TGI): > 100 µM; GI50 (OVCAR-4; read-out: pGI50 (converted)): 7.59 µM; CC50 (OVCAR-4; [15]): > 100 µM; TGI (OVCAR-4; read-out: pTGI): > 100 µM; GI50 (UO-31; read-out: GI50): 5.49 µM; CC50 (UO-31; [14]): > 100 µM; TGI (UO-31; read-out: TGI): > 100 µM; GI50 (UO-31; read-out: pGI50 (converted)): 5.5 µM; CC50 (UO-31; [15]): > 100 µM; TGI (UO-31; read-out: pTGI): > 100 µM; GI50 (BT-549; read-out: GI50): 2.8 µM; CC50 (BT-549; [14]): > 100 µM; TGI (BT-549; read-out: TGI): > 100 µM; GI50 (BT-549; read-out: pGI50 (converted)): 2.82 µM; CC50 (BT-549; [15]): > 100 µM; TGI (BT-549; read-out: pTGI): > 100 µM; Activity (HL-60 [10]): 54.11%; Activity (MDA-MB-435 [11]): Active; Activity (HL-60 [12]): Active; fold change (FC) (HL-60 [13]): <=10

Q: What does the source list for `CCS/C(Nc1ccccc1)=C(\C#N)C(=O)N/N=C\c1ccc(Cl)cc1Cl`?
A: growth at 0.01 µM (SR [1]): 91%; growth at 0.01 µM (COLO 205): 101%; growth at 0.01 µM (HCC 2998): 101%; growth at 0.01 µM (SNB-19): 97%; growth at 0.01 µM (IGROV-1): 106%; growth at 0.1 µM (NCI-H23): 97%; growth at 0.1 µM (NCI-H460): 98%; growth at 0.1 µM (SF-268): 94%; growth at 0.1 µM (OVCAR-8 [2]): 96%; growth at 1 µM (EKVX): 87%; growth at 1 µM (NCI-H322M): 89%; growth at 1 µM (KM12 [3]): 90%; growth at 1 µM (DU-145): 97%; growth at 10 µM (HL-60(TB) [4]): 8%; growth at 10 µM (SNB-75): -2%; growth at 100 µM (HL-60(TB) [5]): 5%; growth at 100 µM (SR [6]): 7%; growth at 100 µM (HOP-62): 8%; growth at 100 µM (U-251): 12%; growth at 100 µM (OVCAR-3): -23%; growth at 100 µM (OVCAR-8 [7]): 20%; growth at 100 µM (CAKI-1): 13%; GI50 (KM12 [8]; read-out: GI50): 4.04 µM; CC50 (KM12 [8]; [14]): > 100 µM; TGI (KM12 [8]; read-out: TGI): > 100 µM; GI50 (KM12 [8]; read-out: pGI50 (converted)): 4.07 µM; CC50 (KM12 [8]; [15]): > 100 µM; TGI (KM12 [8]; read-out: pTGI): > 100 µM; GI50 (MDA-MB-435 [9]; read-out: GI50): 0.419 µM; CC50 (MDA-MB-435 [9]; [14]): 9.26 µM; TGI (MDA-MB-435 [9]; read-out: TGI): 2.23 µM; GI50 (MDA-MB-435 [9]; read-out: pGI50 (converted)): 0.417 µM; CC50 (MDA-MB-435 [9]; [15]): 9.33 µM; TGI (MDA-MB-435 [9]; read-out: pTGI (converted)): 2.24 µM; GI50 (OVCAR-4; read-out: GI50): 6.57 µM; CC50 (OVCAR-4; [14]): > 100 µM; TGI (OVCAR-4; read-out: TGI): > 100 µM; GI50 (OVCAR-4; read-out: pGI50 (converted)): 6.61 µM; CC50 (OVCAR-4; [15]): > 100 µM; TGI (OVCAR-4; read-out: pTGI): > 100 µM; GI50 (UO-31; read-out: GI50): 6.91 µM; CC50 (UO-31; [14]): > 100 µM; TGI (UO-31; read-out: TGI): > 100 µM; GI50 (UO-31; read-out: pGI50 (converted)): 6.92 µM; CC50 (UO-31; [15]): > 100 µM; TGI (UO-31; read-out: pTGI): > 100 µM; GI50 (BT-549; read-out: GI50): 2.8 µM; CC50 (BT-549; [14]): > 100 µM; TGI (BT-549; read-out: TGI): > 100 µM; GI50 (BT-549; read-out: pGI50 (converted)): 2.82 µM; CC50 (BT-549; [15]): > 100 µM; TGI (BT-549; read-out: pTGI): > 100 µM; Activity (HL-60 [10]): 46.38%; Activity (MDA-MB-435 [11]): Active; Activity (HL-60 [12]): Active; fold change (FC) (HL-60 [13]): <=10
